In ChEMBL document CHEMBL1201862, “PubChem BioAssay data set” (2004):
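Following 48 hours of exposure in 96-well plates, responses at five concentrations were used to interpolate endpoints linearly. GI50 is the concentration that inhibits growth by half.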 Activity calls are given as the source filed them. Cut-off read from the data, not from the text of the source: active = GI50 up to about 1.1 µM and inactive = higher.

Experiments:
Test in all cases: NCI anticancer screen, dose series, 48 h
NCI-H522 = tested on: NCI-H522
OVCAR-5 = tested on: OVCAR-5
CAKI-1 = tested on: CAKI-1
NCI-H226 = tested on: NCI-H226
DU-145 = tested on: DU-145
SK-MEL-2 = tested on: SK-MEL-2
BT-549 = tested on: BT-549
MOLT-4 = tested on: MOLT-4
U-251 = tested on: U-251
NCI-H23 = tested on: NCI-H23
M14 = tested on: M14
A498 = tested on: A498
Hs-578T = tested on: Hs-578T
NCI/ADR-RES = tested on: NCI/ADR-RES
HL-60 = tested on: HL-60
OVCAR-8 = tested on: OVCAR-8
COLO 205 = tested on: COLO 205
SW-620 = tested on: SW-620
MCF7 = tested on: MCF7

Measured: GI50

O=C1CCCCC(=O)Nc2ccccc2N1
inactive: NCI-H522 > 100 µM | OVCAR-5 > 100 µM | CAKI-1 > 100 µM | NCI-H226 > 100 µM | DU-145 > 100 µM | SK-MEL-2 > 100 µM | BT-549 > 100 µM | MOLT-4 > 100 µM | U-251 > 100 µM | NCI-H23 > 100 µM | M14 > 100 µM | A498 > 100 µM | Hs-578T > 100 µM | NCI/ADR-RES > 100 µM | HL-60 > 100 µM | OVCAR-8 > 100 µM | COLO 205 > 100 µM | SW-620 > 100 µM

COc1ccc(C2N(c3ccc(F)cc3)C(=O)N3C(c4ccc(OC)cc4)N(c4ccc(F)cc4)C(=O)N23)cc1 (centres undefined)
inactive: NCI-H522 > 100 µM | OVCAR-5 > 100 µM | CAKI-1 > 100 µM | DU-145 > 100 µM | SK-MEL-2 > 100 µM | BT-549 > 100 µM | U-251 > 100 µM | NCI-H23 > 100 µM | M14 > 100 µM | A498 > 100 µM | Hs-578T > 100 µM | NCI/ADR-RES > 100 µM | HL-60 > 100 µM | OVCAR-8 > 100 µM | COLO 205 > 100 µM | SW-620 > 100 µM

CC(C)(C)OC(=O)NCCC(N)=S
inactive: OVCAR-5 > 100 µM | NCI-H226 > 100 µM | DU-145 > 100 µM | MCF7 > 100 µM | BT-549 > 100 µM | MOLT-4 > 100 µM | U-251 > 100 µM | NCI-H23 > 100 µM | M14 > 100 µM | A498 > 100 µM | Hs-578T > 100 µM | NCI/ADR-RES > 100 µM | HL-60 > 100 µM | OVCAR-8 > 100 µM | COLO 205 > 100 µM | SW-620 > 100 µM

COc1cccc2nc3ccccc3nc12
inactive: OVCAR-5 > 100 µM | CAKI-1 61 µM | NCI-H226 45.5 µM | DU-145 > 100 µM | MCF7 54.7 µM | MOLT-4 60.8 µM | U-251 55.5 µM | NCI-H23 > 100 µM | M14 > 100 µM | A498 76.9 µM | Hs-578T > 100 µM | NCI/ADR-RES > 100 µM | HL-60 > 100 µM | OVCAR-8 23.8 µM | COLO 205 90.2 µM | SW-620 45.8 µM

CO/C(=N\N=C\c1cccc(Cl)c1)c1ccncc1
inactive: NCI-H522 > 10 µM | OVCAR-5 > 10 µM | CAKI-1 > 10 µM | NCI-H226 > 10 µM | DU-145 > 10 µM | MCF7 > 10 µM | SK-MEL-2 > 10 µM | BT-549 > 10 µM | MOLT-4 > 10 µM | U-251 > 10 µM | NCI-H23 > 10 µM | M14 > 10 µM | NCI/ADR-RES > 10 µM | HL-60 > 10 µM | OVCAR-8 > 10 µM | COLO 205 > 10 µM | SW-620 > 10 µM

Cc1[nH]n(-c2nc(-c3ccccc3)cc(=O)[nH]2)c(=O)c1CCO
inactive: OVCAR-5 > 100 µM | CAKI-1 > 100 µM | NCI-H226 > 100 µM | DU-145 > 100 µM | MCF7 > 100 µM | SK-MEL-2 > 100 µM | MOLT-4 63.5 µM | U-251 > 100 µM | NCI-H23 > 100 µM | M14 > 100 µM | Hs-578T > 100 µM | NCI/ADR-RES 71.1 µM | HL-60 > 100 µM | OVCAR-8 > 100 µM | COLO 205 > 100 µM | SW-620 > 100 µM

O=C1c2ccccc2C(=O)N1CC1S(=O)(=O)OCCOS1(=O)=O
inactive: NCI-H522 > 100 µM | OVCAR-5 > 100 µM | CAKI-1 > 100 µM | NCI-H226 > 100 µM | DU-145 > 100 µM | MCF7 > 100 µM | MOLT-4 > 100 µM | U-251 > 100 µM | NCI-H23 > 100 µM | M14 > 100 µM | A498 > 100 µM | Hs-578T > 100 µM | NCI/ADR-RES > 100 µM | HL-60 > 100 µM | OVCAR-8 > 100 µM | COLO 205 > 100 µM | SW-620 > 100 µM

C=C(COC(=O)C(C)C)[C@H]1Oc2ccc(C(C)=O)cc2[C@@H]1OC(=O)C(C)C
inactive: OVCAR-5 > 100 µM | CAKI-1 > 100 µM | NCI-H226 > 100 µM | DU-145 > 100 µM | MCF7 > 100 µM | SK-MEL-2 > 100 µM | BT-549 > 100 µM | MOLT-4 > 100 µM | U-251 > 100 µM | NCI-H23 > 100 µM | M14 > 100 µM | Hs-578T 42.6 µM | HL-60 53.6 µM | OVCAR-8 > 100 µM | COLO 205 > 100 µM | SW-620 > 100 µM

Cc1oc2nc(N(C)C)nc(Cl)c2c1C
inactive: NCI-H522 > 100 µM | OVCAR-5 > 100 µM | CAKI-1 49.4 µM | NCI-H226 84.1 µM | DU-145 > 100 µM | SK-MEL-2 > 100 µM | BT-549 > 100 µM | MOLT-4 > 100 µM | U-251 > 100 µM | NCI-H23 > 100 µM | M14 > 100 µM | A498 29.9 µM | Hs-578T > 100 µM | NCI/ADR-RES > 100 µM | HL-60 > 100 µM | OVCAR-8 > 100 µM | COLO 205 > 100 µM | SW-620 > 100 µM

O=C1NN=C(c2c[nH]c3ccccc23)CC1NCc1ccccc1 (centres undefined)
inactive: NCI-H522 > 100 µM | OVCAR-5 > 100 µM | CAKI-1 > 100 µM | NCI-H226 > 100 µM | DU-145 > 100 µM | SK-MEL-2 > 100 µM | BT-549 > 100 µM | MOLT-4 > 100 µM | U-251 > 100 µM | NCI-H23 > 100 µM | M14 > 100 µM | A498 > 100 µM | Hs-578T > 100 µM | NCI/ADR-RES > 100 µM | HL-60 > 100 µM | OVCAR-8 > 100 µM | COLO 205 > 100 µM | SW-620 > 100 µM

O=C1ON=C2C3CC4CC12CC1(C3)C(=O)ON=C41
inactive: NCI-H522 > 100 µM | OVCAR-5 > 100 µM | CAKI-1 > 100 µM | NCI-H226 > 100 µM | DU-145 > 100 µM | MCF7 > 100 µM | SK-MEL-2 > 100 µM | BT-549 > 100 µM | MOLT-4 > 100 µM | U-251 > 100 µM | NCI-H23 > 100 µM | M14 > 100 µM | A498 > 100 µM | NCI/ADR-RES > 100 µM | HL-60 > 100 µM | OVCAR-8 > 100 µM | COLO 205 > 100 µM | SW-620 > 100 µM

CCCC(C)c1c(Cl)nc(Cl)nc1Cl (centres undefined)
inactive: NCI-H522 1.13 µM | OVCAR-5 21.2 µM | NCI-H226 4.34 µM | DU-145 15 µM | MCF7 8.55 µM | SK-MEL-2 23.9 µM | BT-549 1.99 µM | MOLT-4 1.49 µM | U-251 9.38 µM | NCI-H23 3.18 µM | M14 1.71 µM | Hs-578T 9.38 µM | NCI/ADR-RES 33.4 µM | HL-60 2.1 µM | OVCAR-8 19.1 µM | COLO 205 4.4 µM | SW-620 4.23 µM

CN1CCN(C(=S)N(C(=O)c2cccs2)c2ccccc2)CC1
inactive: NCI-H522 > 100 µM | OVCAR-5 94.6 µM | NCI-H226 > 100 µM | DU-145 > 100 µM | MCF7 > 100 µM | SK-MEL-2 > 100 µM | BT-549 > 100 µM | MOLT-4 > 100 µM | U-251 > 100 µM | NCI-H23 > 100 µM | M14 > 100 µM | Hs-578T > 100 µM | HL-60 > 100 µM | OVCAR-8 > 100 µM | COLO 205 > 100 µM | SW-620 > 100 µM

Cc1cc(C)c(N[S+]([O-])c2cccc(C(F)(F)F)c2)c(C)c1 (centres undefined)
inactive: OVCAR-5 > 100 µM | NCI-H226 > 100 µM | DU-145 > 100 µM | MCF7 > 100 µM | BT-549 > 100 µM | MOLT-4 > 100 µM | U-251 > 100 µM | NCI-H23 > 100 µM | M14 > 100 µM | A498 > 100 µM | NCI/ADR-RES > 100 µM | HL-60 > 100 µM | OVCAR-8 > 100 µM | COLO 205 > 100 µM | SW-620 > 100 µM

C#CCOCC12C=CC(O1)C1C(=O)N(C)C(=O)C12 (centres undefined)
inactive: OVCAR-5 > 100 µM | NCI-H226 > 100 µM | DU-145 > 100 µM | MCF7 > 100 µM | BT-549 > 100 µM | MOLT-4 > 100 µM | U-251 > 100 µM | NCI-H23 > 100 µM | M14 > 100 µM | A498 > 100 µM | NCI/ADR-RES > 100 µM | HL-60 > 100 µM | OVCAR-8 > 100 µM | COLO 205 > 100 µM | SW-620 > 100 µM

CCN(CC)CCC(=O)NC1c2ccc(Cl)cc2Oc2c(C)cccc21 (centres undefined)
inactive: NCI-H522 17.1 µM | OVCAR-5 15.6 µM | DU-145 16 µM | MCF7 15.7 µM | BT-549 13.9 µM | MOLT-4 18.6 µM | U-251 > 10 µM | NCI-H23 17.4 µM | M14 17.5 µM | NCI/ADR-RES 16.8 µM | HL-60 13.9 µM | OVCAR-8 16.9 µM | COLO 205 18.6 µM | SW-620 16.7 µM

CCOC(=O)[C@@H]1ON2O[C@@H](OC3CCCCC3c3ccccc3)C[C@H]3OC(=O)[C@@H]1C32 (some centres undefined)
inactive: NCI-H522 87.1 µM | OVCAR-5 > 100 µM | CAKI-1 51.9 µM | NCI-H226 93.8 µM | DU-145 > 100 µM | MCF7 > 100 µM | MOLT-4 > 100 µM | U-251 > 100 µM | NCI-H23 53.6 µM | M14 > 100 µM | A498 > 100 µM | Hs-578T > 100 µM | NCI/ADR-RES > 100 µM | OVCAR-8 > 100 µM | COLO 205 > 100 µM | SW-620 > 100 µM
